Results published in PMC8620910, “Design and Synthesis of (2-oxo-1,2-Dihydroquinolin-4-yl)-1,2,3-triazole Derivatives via Click Reaction: Potential Apoptotic Antiproliferative Agents” (Molecules, 2021).

Assays:
[1] = test system: breast cancer cell line (MCF-7); test: Anti-proliferative propidium iodide fluorescence assay, MCF-7; type: cell-based; conditions: Homo sapiens, MCF7; read-out: Anti-Proliferative Activity IC50 ± SEM, MCF-7
Procedure: (§1) Tested 8a–l compounds were assessed for their anti-proliferative activity against four human cancer cell lines, including the pancreatic cancer cell line (Panc-1), breast cancer cell line (MCF-7), colon cancer cell line (HT-29), and epithelial cancer cell line (A-549) using propidium iodide fluorescence assay and the reference doxorubicin. Results (IC50) are illustrated in Table 3.
(§2) To explore the anti-proliferative potential of compounds, propidium iodide fluorescence assay was performed using different cell lines such as Panc-1 (pancreas cancer cell line), MCF-7 (breast cancer cell line), HT-29 (colon cancer cell line), and A-549 (epithelial cancer cell line), respectively. To calculate the total nuclear DNA, a fluorescent dye (propidium iodide, PI) is used to attach to the DNA, thus offering a quick and precise technique. PI cannot pass through the cell membrane, and its signal intensity can be considered as directly proportional to the quantity of cellular DNA. Cells whose cell membranes are damaged or have changed permeability are counted as dead ones. The assay was performed by seeding the cells of different cell lines at a density of 3000–7500 cells/well (in 200 μL medium) in culture plates followed by incubation for 24 h at 37 °C in humidified 5%CO2/95% air atmospheric conditions. The medium was removed; the compounds were added to the plates at 10 μM concentrations (in 0.1% DMSO) in triplicates, followed by incubation for 48h. DMSO (0.1%) was used as a control. After incubation, the medium was removed, followed by the addition of PI (25 μL, 50 μg/mL in water/medium) to each well of the plates. At −80 °C, the plates were allowed to freeze for 24 h, followed by thawing at 25 °C. A fluorometer (Polar-Star BMG Tech, Beijing, China) was used to record the readings at excitation and emission wavelengths of 530 and 620 nm for each well. The percentage cytotoxicity of compounds was calculated using the following formula: % Cytotoxicity=AC−ATC/AC×100 where ATC = absorbance of treated cells and AC = absorbance of control. Doxorubicin was used as a positive control in the assay.

[2] = Cell viability assay (MTT) on MCF-10A; type: cell-based; conditions: human, MCF-10A mammary epithelial cells, four days
Procedure: A human mammary gland epithelial cell line was used in the cell viability assay (MCF-10A). MCF-10A cells were incubated with compounds 8a–l for four days, and cell viability was determined using an MTT assay.
An MTT assay was performed to investigate the effect of the synthesized compounds on mammary epithelial cells (MCF-10A) at a concentration of 50 µM for the tested compound. The cells were propagated in a medium consisting of Ham’s F-12 medium/Dulbecco’s modified Eagle’s medium (DMEM) (1:1) supplemented with 10% fetal calf serum, 2 mM glutamine, insulin (10 μg/mL), hydrocortisone (500 ng/mL), and epidermal growth factor (20 ng/mL). Trypsin ethylenediamine tetra acetic acid (EDTA) was used to pass the cells every 2–3 days. Ninety-six-well flat-bottomed cell culture plates were used to seed the cells at a density of 10^4 cells mL^−1. The medium was aspirated from all the wells of culture plates after 24 h followed by the addition of synthesized compounds (in 200 μL medium to yield a final concentration of 0.1% (v/v) dimethylsulfoxide) into individual wells of the plates. Four wells were designated to a single compound. The plates were allowed to incubate at 37 °C for 96 h. Afterward, the medium was aspirated, and 3-[4,5-dimethylthiazol-2-yl]-2,5-diphenyltetrazolium bromide (MTT) (0.4 mg/mL) in the medium was added to each well and subsequently incubated for 3 h. The medium was aspirated, and 150 μL dimethyl sulfoxide (DMSO) was added to each well. The plates were vortexed, followed by the measurement of absorbance at 540 nm on a microplate reader. The results were presented as inhibition (%) of proliferation compared to controls comprising 0.1% DMSO.

[3] = test system: epithelial cancer cell line (A-549); test: Anti-proliferative propidium iodide fluorescence assay, A-549; type: cell-based; conditions: Homo sapiens, A549; read-out: Anti-Proliferative Activity IC50 ± SEM, A-549
Procedure: as §1, §2

[4] = test system: pancreatic cancer cell line (Panc-1); test: Anti-proliferative propidium iodide fluorescence assay, Panc-1; type: cell-based; conditions: Homo sapiens, read-out: Anti-Proliferative Activity IC50 ± SEM, Panc-1
Procedure: as §1, §2

[5] = test system: colon cancer cell line (HT-29); test: Anti-proliferative propidium iodide fluorescence assay, HT-29; type: cell-based; conditions: Homo sapiens, read-out: Anti-Proliferative Activity IC50 ± SEM, HT-29
Procedure: as §1, §2

[6] = test system: A-549, MCF-7, Panc-1 and HT-29 cell lines; test: Average anti-proliferative IC50 over the four cancer cell lines; type: cell-based, human; conditions: for IC50: Homo sapiens, average of A-549, MCF-7, Panc-1, HT-29; for fold decrease in activity relative to 8c: from average IC50
Procedure: as §1, with “doxorubicin.” for “doxorubicin. Results (IC50) are illustrated in Table 3.”
as §2

active Caspase 3 = test: Caspase 3 activation assay in MCF-7
Procedure: All reagents were allowed to reach room temperature before use. All liquid reagents were gently mixed before use. The number of 8-well strips needed for the assay was determined. These were inserted into the frame(s) for current use. A total of 100 μL of the Standard Diluent Buffer was added to the zero standard wells. Well(s) reserved for chromogen blank were left empty. A total of 100 μL of standards and controls or diluted samples was added to the appropriate microtiter wells. The sample dilution chosen was optimized for each experimental system. The side of the plate was gently tapped on to mix. Wells were covered with a plate cover and incubated for 2 h at room temperature. […]
The working dilution was prepared as described in Preparing IgG HRP. […] The incubation time for chromogen substrate was determined by the microtiter plate reader used.
Many plate readers have the capacity to record a maximum optical density (O.D.) of 2.0. The O.D. values were monitored, and the substrate reaction was stopped before the O.D. of the positive wells exceeds the limits of the instrument. The O.D. values at 450 nm could only be read after the Stop Solution had been added to each well. […] The absorbance of each well was read at 450 nm, having blanked the plate reader against a chromogen blank composed of 100 μL each of Stabilized Chromogen and Stop Solution. […]

Row | Structure (SMILES) | IC50 [1] | viability at 96 h, 50 µM [2] | IC50 [3] | IC50 [4] | IC50 [5] | IC50 [6] | fold decrease in activity relative to 8c [6] | Caspase 3 Conc (active Caspase 3; MCF-7) | Caspase 3 Fold Change (active Caspase 3; MCF-7, versus untreated control) | fold reduction of the average IC50 value relative to 8a ([6]; replacement of NH by N-CH3)
1 | Cn1c(=O)c(C(c2ccc(OCc3cn(-c4cc(=O)[nH]c5ccccc45)nn3)cc2)c2c(O)c3ccccc3n(C)c2=O)c(O)c2ccccc21 [Compound 8i, 3,3’-((4-((1-(2-oxo-1,2-dihydroquinolin-4-yl)-1H-1,2,3-triazol-4-yl)methoxy)phenyl)-methylene)bis(4-hydroxy-1-methylquinolin-2(1H)-one)] | 17.8 ± 1.6 µM | 90% | 17.9 ± 0.3 µM | 17.6 ± 1.5 µM | 17.9 ± 1.1 µM | 17.8 µM | – | – | – | –
2 | COc1ccc2[nH]c(=O)cc(-n3cc(COc4ccc(C(c5c(O)c6ccccc6n(C)c5=O)c5c(O)c6ccccc6n(C)c5=O)cc4)nn3)c2c1 [Compound 8k] | 13.6 ± 2.2 µM | 90% | 14.5 ± 2.6 µM | 14.6 ± 2.9 µM | 14.8 ± 1.4 µM | 14.4 µM | – | – | – | –
3 | Cc1ccc2[nH]c(=O)cc(-n3cc(COc4ccc(C(c5c(O)c6ccccc6n(C)c5=O)c5c(O)c6ccccc6n(C)c5=O)cc4)nn3)c2c1 [Compound 8j, 3,3’-((4-((1-(6-Methyl-2-oxo-1,2-dihydroquinolin-4-yl)-1H-1,2,3-triazol-4-yl)methoxy)phenyl)methylene)bis(4-hydroxy-1-methylquinolin-2(1H)-one)] | 22.1 ± 0.1 µM | 81% | 22.5 ± 0.2 µM | 22.4 ± 0.2 µM | 22.9 ± 0.6 µM | 22.5 µM | – | – | – | –
4 | COc1ccc2[nH]c(=O)c(C(c3ccc(OCc4cn(-c5cc(=O)n(C)c6ccccc56)nn4)cc3)c3c(O)c4cc(OC)ccc4[nH]c3=O)c(O)c2c1 [Compound 8h, 3,3’-((4-((1-(1-Methly-2-oxo-1,2-dihydroquinolin-4-yl)-1H-1,2,3-triazol-4-yl)methoxy)phenyl)methylene)bis(4-hydroxy-6-methoxyquinolin-2(1H)-one)] | 10.6 ± 2.9 µM | 90% | 10.7 ± 2.5 µM | 10.8 ± 1.9 µM | 10.8 ± 1.6 µM | 10.7 µM | – | – | – | –
5 | O=c1cc(-n2cc(COc3ccc(C(c4c(O)c5ccccc5[nH]c4=O)c4c(O)c5ccccc5[nH]c4=O)cc3)nn2)c2ccccc2[nH]1 [Compound 8a, 3,3’-((4-((1-(2-oxo-1,2-dihydroquinolin-4-yl)-1H-1,2,3-triazol-4-yl)methoxy)phenyl)-methylene)bis(4-hydroxyquinolin-2(1H)-one)] | 5.3 ± 0.8 µM | 89% | 5.7 ± 0.4 µM | 5.6 ± 0.6 µM | 5.7 ± 0.4 µM | 5.58 µM | 1.5 fold | – | – | –
6 | COc1ccc2[nH]c(=O)c(C(c3ccc(OCc4cn(-c5cc(=O)[nH]c6ccc(C)cc56)nn4)cc3)c3c(O)c4cc(OC)ccc4[nH]c3=O)c(O)c2c1 [Compound 8f, 3,3’-((4-((1-(6-Methyl-2-oxo-1,2-dihydroquinolin-4-yl)-1H-1,2,3-triazol-4-yl)methoxy)phenyl)methylene)bis(4-hydroxy-6-methoxyquinolin-2(1H)-one)] | 2.6 ± 0.8 µM | 87% | 2.9 ± 0.5 µM | 3.1 ± 0.2 µM | 3.4 ± 0.2 µM | 3 µM | – | 365.60 ± 3.20 pg/mL | 5.57 fold | –
7 | COc1ccc2[nH]c(=O)cc(-n3cc(COc4ccc(C(c5c(O)c6ccccc6[nH]c5=O)c5c(O)c6ccccc6[nH]c5=O)cc4)nn3)c2c1 [Compound 8c, 3,3’-((4-((1-(6-Methoxy-2-oxo-1,2-dihydroquinolin-4-yl)-1H-1,2,3-triazol-4-yl)methoxy)phenyl)methylene)bis(4-hydroxyquinolin-2(1H)-one)] | 3.2 ± 0.08 µM | 91% | 3.9 ± 0.5 µM | 4.1 ± 0.2 µM | 4.2 ± 0.2 µM | 3.85 µM | – | – | – | –
8 | Cc1ccc2[nH]c(=O)cc(-n3cc(COc4ccc(C(c5c(O)c6ccccc6[nH]c5=O)c5c(O)c6ccccc6[nH]c5=O)cc4)nn3)c2c1 [Compound 8b, 3,3’-((4-((1-(6-Methyl-2-oxo-1,2-dihydroquinolin-4-yl)-1H-1,2,3-triazol-4-yl)methoxy)phenyl)methylene)bis(4-hydroxyquinolin-2(1H)-one)] | 6.9 ± 0.8 µM | 87% | 7.6 ± 0.8 µM | 7.6 ± 0.6 µM | 7.5 ± 0.4 µM | 7.4 µM | 2 fold | – | – | –
9 | Cn1c(=O)cc(-n2cc(COc3ccc(C(c4c(O)c5ccccc5n(C)c4=O)c4c(O)c5ccccc5n(C)c4=O)cc3)nn2)c2ccccc21 [Compound 8l, 3,3’-((4-((1-(1-Methyl-2-oxo-1,2-dihydroquinolin-4-yl)-1H-1,2,3-triazol-4-yl)methoxy)phenyl)methylene)bis(4-hydroxy-1-methylquinolin-2(1H)-one)] | 24.9 ± 1.8 µM | 96% | 25.3 ± 2.5 µM | 24.5 ± 2.3 µM | 24.2 ± 1.4 µM | 24.7 µM | – | – | – | at least 4 fold
10 | Cn1c(=O)cc(-n2cc(COc3ccc(C(c4c(O)c5ccccc5[nH]c4=O)c4c(O)c5ccccc5[nH]c4=O)cc3)nn2)c2ccccc21 [Compound 8d, 3,3’-((4-((1-(1-Methly-2-oxo-1,2-dihydroquinolin-4-yl)-1H-1,2,3-triazol-4-yl)methoxy)phenyl)methylene)bis(4-hydroxyquinolin-2(1H)-one)] | 11.5 ± 1.1 µM | 89% | 12.9 ± 0.8 µM | 11.6 ± 0.8 µM | 11.4 ± 1.2 µM | 11.8 µM | – | – | – | –
